Results from PubChem BioAssay AID330 (DTP/NCI, 2004).
“And” between values parts separate entries of the source, which are not always exact repeats. Equal entries are not always repeated. Inconclusive results and toxic doses are left out. The calls were made as follows: active = survival T/C of 150% or more; inactive = T/C below 125% in these data.

Tested on: P388 leukemia ip, CD2F1 mice, survival T/C
Assay: NCI In Vivo Anticancer Drug Screen. Data for tumor model P388 Leukemia (intraperitoneal) in CD2F1 (CDF1) mice
Settings: endpoint: median survival time, higher = longer survival
In short: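 Mice carrying the transplanted tumor received test compound or vehicle. Survival was recorded in each group, and the value is the treated-group measurement divided by that of the vehicle-treated control group.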

[1] = dose: 50.0 mg/kg/injection, schedule: Q01DX005 (ip), vehicle: Klucel (hydroxypropylcellulose) (HPC)
[2] = dose: 100.0 mg/kg/injection, schedule: Q01DX005 (ip), vehicle: Klucel (hydroxypropylcellulose) (HPC)
[3] = dose: 50.0 mg/kg/injection, schedule: Q01DX005 (ip), vehicle: saline with Tween-80
[4] = dose: 100.0 mg/kg/injection, schedule: Q01DX005 (ip), vehicle: saline with Tween-80
[5] = dose: 200.0 mg/kg/injection, schedule: Q01DX005 (ip), vehicle: saline with Tween-80
[6] = dose: 25.0 mg/kg/injection, schedule: Q01DX009 (ip), vehicle: other
[7] = dose: 50.0 mg/kg/injection, schedule: Q01DX009 (ip), vehicle: other
[8] = dose: 100.0 mg/kg/injection, schedule: Q01DX009 (ip), vehicle: other
[9] = dose: 200.0 mg/kg/injection, schedule: Q01DX009 (ip), vehicle: other
[10] = dose: 50.0 mg/kg/injection, schedule: Q01DX009 (ip), vehicle: saline with Tween-80
[11] = dose: 100.0 mg/kg/injection, schedule: Q01DX009 (ip), vehicle: saline with Tween-80
[12] = dose: 50.0 mg/kg/injection, schedule: Q01DX009 (ip), vehicle: saline
[13] = dose: 100.0 mg/kg/injection, schedule: Q01DX009 (ip), vehicle: saline
[14] = dose: 200.0 mg/kg/injection, schedule: Q01DX009 (ip), vehicle: saline
[15] = dose: 25.0 mg/kg/injection, schedule: Q01DX009 (ip), vehicle: saline with Tween-80
[16] = dose: 100.0 mg/kg/injection, schedule: Q04DX003 (ip), vehicle: saline with Tween-80
[17] = dose: 200.0 mg/kg/injection, schedule: Q04DX003 (ip), vehicle: saline with Tween-80

Measured: T/C

CC1CC2OC(/C=C/C=C/C=C/C=C\C=C\C(O)=C3/C(=O)C(C(C)C)N(C)C3=O)C(O)C2O1 (centres undefined)
inactive: dose: 310.0 micrograms/kg/injection, schedule: Q01DX005 (ip), vehicle: saline with Tween-80 99 % of control | dose: 625.0 micrograms/kg/injection, schedule: Q01DX005 (ip), vehicle: saline with Tween-80 94 % of control | dose: 1250.0 micrograms/kg/injection, schedule: Q01DX005 (ip), vehicle: saline with Tween-80 101 % of control | dose: 2500.0 micrograms/kg/injection, schedule: Q01DX005 (ip), vehicle: saline with Tween-80 99 % of control | dose: 5000.0 micrograms/kg/injection, schedule: Q01DX005 (ip), vehicle: saline with Tween-80 99 % of control

COC(=O)C(O)(C(=O)OC)C1=C(N)C(=O)c2ccccc2C1=O
inactive: dose: 50.0 mg/kg/injection, schedule: Q01DX005 (ip), vehicle: saline 111 % of control | dose: 100.0 mg/kg/injection, schedule: Q01DX005 (ip), vehicle: saline 123 % of control

CC(=O)NS(=O)(=O)c1ccc(N/N=C(\C#N)C(N)=O)cc1
inactive: [1] 92 % of control | [2] 100 % of control

Cc1nc2c(N)cc(Cl)cc2[nH]1
inactive: dose: 50.0 mg/kg/injection, schedule: Q01DX005 (ip), vehicle: saline + Tween-80 + alcohol 101 % of control | [3] 103 % of control | dose: 100.0 mg/kg/injection, schedule: Q01DX005 (ip), vehicle: saline + Tween-80 + alcohol 110 % of control | [4] 113 % of control | [5] 120 % of control

CC(C)c1cc(C(=O)O)c(O)c(C(C)C)c1.CC(C)c1cc(C(=O)O)c(O)c(C(C)C)c1.[Cu]
inactive: dose: 12.5 mg/kg/injection, schedule: Q01DX005 (ip), vehicle: saline with Tween-80 96 % of control | dose: 25.0 mg/kg/injection, schedule: Q01DX005 (ip), vehicle: saline with Tween-80 90 % of control | [3] 98 % of control

CC(C)(C)OC(=O)NN(CC(=O)OCc1ccccc1)N=O
inactive: dose: 12.5 mg/kg/injection, schedule: Q01DX009 (ip), vehicle: other 104 % of control | [6] 97 % of control | [7] 97 % of control | [8] 101 % of control | [9] 97 % of control

O=C1NC(=O)C(CCC[n+]2ccccc2)(c2ccccc2)C(=O)N1
inactive: [10] 107 % of control | [11] 107 % of control

NC(CS)C(=O)O (centres undefined)
inactive: [3] 101 % of control | [12] 115 % of control | [4] 107 % of control | [13] 110 % of control | [5] 110 % of control | [14] 109 % of control

COc1ccc(C)cc1NC(=O)/N=C1/NC(=O)CS1
inactive: [12] 91 % of control | [13] 97 % of control | [14] 91 % of control

Nc1ccccc1OCCCn1cc(-c2ccc(Cl)c(Cl)c2)c(N)nc1=O
inactive: dose: 7.5 mg/kg/injection, schedule: Q01DX005 (ip), vehicle: Klucel (hydroxypropylcellulose) (HPC) 103 % of control | dose: 15.0 mg/kg/injection, schedule: Q01DX005 (ip), vehicle: Klucel (hydroxypropylcellulose) (HPC) 96 % of control | dose: 30.0 mg/kg/injection, schedule: Q01DX005 (ip), vehicle: Klucel (hydroxypropylcellulose) (HPC) 93 % of control

C=C(C)C(=NC(C)(C)C)N1CCCCC1
inactive: [1] 100 % of control | [2] 102 % of control

CCOC(=O)/C(=C(\C)N)n1[nH]c(=O)ccc1=O
inactive: dose: 100.0 mg/kg/injection, schedule: Q04DX002 (ip), vehicle: saline 98 % of control | dose: 200.0 mg/kg/injection, schedule: Q04DX002 (ip), vehicle: saline 100 % of control | dose: 400.0 mg/kg/injection, schedule: Q04DX002 (ip), vehicle: saline 100 % of control

C=CCn1cnc2c(=S)nc[nH]c21
inactive: dose: 12.5 mg/kg/injection, schedule: Q01DX009 (ip), vehicle: saline with Tween-80 104 % of control | [15] 104 % of control | [10] 109 % of control | [16] 109 % of control | [17] 100 % of control

CCOC(=O)NNC(=O)Nc1ccccc1F
inactive: dose: 60.0 mg/kg/injection, schedule: Q01DX005 (ip), vehicle: saline with Tween-80 108 % of control | dose: 120.0 mg/kg/injection, schedule: Q01DX005 (ip), vehicle: saline with Tween-80 96 % of control | dose: 240.0 mg/kg/injection, schedule: Q01DX005 (ip), vehicle: saline with Tween-80 99 % of control

CCOP(=O)(O)CP(=O)(O)OCC.CCOP(=O)(O)CP(=O)(O)OCC.[Cr]
inactive: dose: 50.0 mg/kg/injection, schedule: Q04DX003 (ip), vehicle: saline with Tween-80 102 % of control | [16] 98 % of control | [17] 99 % of control

CCCCCCC(/C=C/c1ccccc1)=N\O
inactive: dose: 6.25 mg/kg/injection, schedule: Q01DX009 (ip), vehicle: Klucel (hydroxypropylcellulose) (HPC) 107 % of control | dose: 12.5 mg/kg/injection, schedule: Q01DX009 (ip), vehicle: Klucel (hydroxypropylcellulose) (HPC) 102 % of control | dose: 25.0 mg/kg/injection, schedule: Q01DX009 (ip), vehicle: Klucel (hydroxypropylcellulose) (HPC) 103 % of control and 104 % of control | dose: 50.0 mg/kg/injection, schedule: Q01DX009 (ip), vehicle: Klucel (hydroxypropylcellulose) (HPC) 108 % of control and 112 % of control | dose: 100.0 mg/kg/injection, schedule: Q01DX009 (ip), vehicle: Klucel (hydroxypropylcellulose) (HPC) 103 % of control | dose: 200.0 mg/kg/injection, schedule: Q01DX009 (ip), vehicle: Klucel (hydroxypropylcellulose) (HPC) 104 % of control and 110 % of control | dose: 400.0 mg/kg/injection, schedule: Q01DX009 (ip), vehicle: Klucel (hydroxypropylcellulose) (HPC) 109 % of control and 98 % of control

NC(=O)c1n[nH]c(=S)[nH]c1=O
inactive: [1] 102 % of control | [2] 91 % of control | dose: 200.0 mg/kg/injection, schedule: Q01DX005 (ip), vehicle: Klucel (hydroxypropylcellulose) (HPC) 96 % of control

Oc1ccc(O)c(/C=N/NC(=S)NC2CC3CC2C2C=CCC32)c1 (centres undefined)
inactive: dose: 12.5 mg/kg/injection, schedule: Q01DX009 (ip), vehicle: olive oil, sesame oil, peanut oil 90 % of control | dose: 25.0 mg/kg/injection, schedule: Q01DX009 (ip), vehicle: olive oil, sesame oil, peanut oil 102 % of control | dose: 50.0 mg/kg/injection, schedule: Q01DX009 (ip), vehicle: olive oil, sesame oil, peanut oil 102 % of control | dose: 100.0 mg/kg/injection, schedule: Q01DX009 (ip), vehicle: olive oil, sesame oil, peanut oil 98 % of control | dose: 200.0 mg/kg/injection, schedule: Q01DX009 (ip), vehicle: olive oil, sesame oil, peanut oil 105 % of control

CC(C)(c1ccccc1)c1ccc(O)cc1
inactive: [15] 100 % of control | [10] 100 % of control | [11] 100 % of control | [16] 90 % of control

CCN(CC)CCOc1cccc(C)c1C
inactive: [15] 100 % of control | [10] 95 % of control | [11] 104 % of control

CCn1c2nc(=O)[nH]c(=O)c-2[n+]([O-])c2ccccc21
inactive: dose: 12.5 mg/kg/injection, schedule: Q01DX001 (ip), vehicle: saline with Tween-80 96 % of control | dose: 25.0 mg/kg/injection, schedule: Q01DX001 (ip), vehicle: saline with Tween-80 96 % of control | dose: 50.0 mg/kg/injection, schedule: Q01DX001 (ip), vehicle: saline with Tween-80 96 % of control

O=c1oc2c(c(N(c3ccccc3)c3ccccc3)c1Cl)CSc1ccccc1-2
inactive: [16] 90 % of control

COc1ccc(C(=O)ON(c2ccccc2)C(C)(C)C)cc1
inactive: [15] 97 % of control | [10] 103 % of control | [11] 97 % of control

COc1cc(Br)cc(C(=O)N2CCc3ccccc32)c1OC
inactive: [6] 99 % of control | [7] 96 % of control | [8] 96 % of control | [9] 96 % of control | dose: 400.0 mg/kg/injection, schedule: Q01DX009 (ip), vehicle: other 87 % of control

C1CCCCCC2OC2CCCC1 (centres undefined)
inactive: dose: 50.0 mg/kg/injection, schedule: Q04DX003 (ip), vehicle: Klucel (hydroxypropylcellulose) (HPC) 107 % of control | dose: 100.0 mg/kg/injection, schedule: Q04DX003 (ip), vehicle: Klucel (hydroxypropylcellulose) (HPC) 112 % of control | dose: 200.0 mg/kg/injection, schedule: Q04DX003 (ip), vehicle: Klucel (hydroxypropylcellulose) (HPC) 107 % of control
